Key:
Mus musculus = experiment: Immunomodulatory activity in po dosed mouse assessed as reduction in peripheral lymphocyte count measured at 4 hrs; type: functional
[1] = target: Sphingosine 1-phosphate receptor 1 (Homo sapiens, UniProt P21453); experiment: Agonist activity at human S1P1 receptor expressed in CHO cells assessed as intracellular calcium levels; type: functional, cell-based
[2] = target: Sphingosine 1-phosphate receptor 3 (Homo sapiens, UniProt Q99500); experiment: Agonist activity at human S1P3 receptor expressed in CHO cells assessed as intracellular calcium levels; type: functional, cell-based
[3] = Half life in rat at 1 mg/kg, po; type: ADME, organism-based; set-up: dose 1 mg/kg, route oral; conditions: in vivo
[4] = Cmax in rat at 1 mg/kg, po; type: ADME, organism-based; set-up: dose 1 mg/kg, route oral; conditions: in vivo
[5] = AUC (infinity) in rat at 1 mg/kg, iv; type: ADME, organism-based; set-up: time infinity, dose 1 mg/kg, route intravenous; conditions: plasma
[6] = AUC (infinity) in rat at 1 mg/kg, po; type: ADME, organism-based; set-up: time infinity, dose 1 mg/kg, route oral; conditions: plasma
[7] = Volume of distribution at steady state in rat at 1 mg/kg, iv; type: ADME, organism-based; set-up: dose 1 mg/kg, route intravenous; conditions: in vivo, read-out: Vdss
[8] = Bioavailability in rat at 1 mg/kg, iv; type: ADME, organism-based; conditions: in vivo
[9] = Half life in rat at 1 mg/kg, iv; type: ADME, organism-based; set-up: dose 1 mg/kg, route intravenous; conditions: in vivo
[10] = Total clearance in rat at 1 mg/kg, iv; type: ADME, organism-based; set-up: dose 1 mg/kg, route intravenous; conditions: in vivo

Sequence of Sphingosine 1-phosphate receptor 3 (Q99500 whole entry): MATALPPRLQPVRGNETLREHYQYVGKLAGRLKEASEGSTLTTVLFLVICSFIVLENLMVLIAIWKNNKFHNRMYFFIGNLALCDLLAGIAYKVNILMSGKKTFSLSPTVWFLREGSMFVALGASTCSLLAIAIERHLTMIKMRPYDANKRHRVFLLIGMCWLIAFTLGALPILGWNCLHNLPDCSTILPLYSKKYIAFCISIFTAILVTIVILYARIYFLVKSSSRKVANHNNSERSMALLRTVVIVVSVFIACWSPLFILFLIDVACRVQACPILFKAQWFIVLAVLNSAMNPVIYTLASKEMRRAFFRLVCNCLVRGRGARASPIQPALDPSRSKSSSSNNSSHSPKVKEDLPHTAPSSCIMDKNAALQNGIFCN
Sequence of Sphingosine 1-phosphate receptor 1 (P21453 whole entry): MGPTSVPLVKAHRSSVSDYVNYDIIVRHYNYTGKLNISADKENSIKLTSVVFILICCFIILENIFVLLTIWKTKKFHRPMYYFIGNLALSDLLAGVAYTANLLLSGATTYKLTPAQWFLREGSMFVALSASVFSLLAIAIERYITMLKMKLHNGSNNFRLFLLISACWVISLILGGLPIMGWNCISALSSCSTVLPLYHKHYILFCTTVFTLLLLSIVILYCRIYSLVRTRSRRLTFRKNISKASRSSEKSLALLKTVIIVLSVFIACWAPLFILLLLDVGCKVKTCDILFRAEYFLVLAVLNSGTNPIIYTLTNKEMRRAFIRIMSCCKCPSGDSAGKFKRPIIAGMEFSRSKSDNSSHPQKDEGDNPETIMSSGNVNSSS

Row | EC50 [1] [nM] | EC50 [2] [nM] | Structure (SMILES) | further results
1 | – | – | O=C(O)CCNC/C=C/c1ccc(OCCCc2ccccc2)cc1 | ED50 (Mus musculus): 4.6 mg/kg
2 | 120 | > 10000 | O=C(O)CCNC/C=C/c1ccc(OCCCCc2ccccc2)cc1 | –
3 | 150 | 6700 | O=C(O)CCNC/C=C/c1ccc(OCCCCCc2ccccc2)cc1 | –
4 | 280 | > 10000 | Cc1cc(/C=C/CNCCC(=O)O)ccc1OCCCCc1ccccc1 | –
5 | 24 | 7200 | O=C(O)CCNC/C=C/c1ccc(OCCCCc2ccccc2)cc1Cl | –
6 | 230 | > 10000 | COc1cc(OCCCCc2ccccc2)ccc1/C=C/CNCCC(=O)O | –
7 | 36 | > 10000 | Cc1cc(OCCCCc2ccccc2)ccc1/C=C/CNCCC(=O)O | –
8 | 43 | 3300 | O=C(O)C1CN(C/C=C/c2ccc(OCCCc3ccccc3)cc2)C1 | –
9 | 2400 | > 10000 | O=C(O)C1CCN(C/C=C/c2ccc(OCCCc3ccccc3)cc2)CC1 | –
10 | 10 | 3000 | C/C(=C\c1ccc(OCCCCc2ccccc2)cc1)CNCCC(=O)O | –
11 | 57 | 7800 | O=C(O)CCNCC1=Cc2ccc(OCCCCc3ccccc3)cc2CC1 | –
12 | 11 | > 10000 | CC1=C(CNCCC(=O)O)CCc2cc(OCCCCc3ccccc3)ccc21 | half-life [3]: 6.9 h; Cmax [4]: 168 ng/mL; AUC(0-inf) [5]: 5400 ng·h/mL; AUC(0-inf) [6]: 2400 ng·h/mL; Vd [7]: 0.86 L/kg; ED50 (Mus musculus): 0.34 mg/kg; bioavailability [8]: 44%; half-life [9]: 5.2 h; clearance [10]: 3.1 mL/min/kg
13 | 2.9 | > 10000 | CC1=C(CN2CC(C(=O)O)C2)CCc2cc(OCCCCc3ccccc3)ccc21 | half-life [3]: 16.7 h; Cmax [4]: 181 ng/mL; AUC(0-inf) [5]: 4400 ng·h/mL; AUC(0-inf) [6]: 3800 ng·h/mL; Vd [7]: 2.86 L/kg; ED50 (Mus musculus): 0.16 mg/kg; bioavailability [8]: 85%; half-life [9]: 11 h; clearance [10]: 4 mL/min/kg
14 | 1300 | > 10000 | CC1=C(CN2CC(C(=O)O)C2)CCCc2cc(OCCCCc3ccccc3)ccc21 | –
